Data taken from the supplement of paper PMC11451515.

Test system: SEM cells
Experiment: cell viability relative to DMSO control; higher = less cytotoxic
Details: 48 h
Outline: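 Viability is a per-plate percentage relative to DMSO wells, with cell-free wells as background. CellTiter-Glo One luminescence was read after 48 h at 37°C on 1536-well plates (5 μl) of NOMO1 or SEM (500 cells/well) or P12-Ichikawa (1000 cells/well) leukemia cells. The cells had been adapted for at least four passages in each medium and pin-dosed with library compounds in DMSO from 47 μM to 0.79 nM in 11 threefold steps.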

[1] = HPLM + 10% dialyzed FBS, 0.000781 µM
[2] = HPLM + 10% dialyzed FBS, 0.00234 µM
[3] = HPLM + 10% dialyzed FBS, 0.00702 µM
[4] = HPLM + 10% dialyzed FBS, 0.0211 µM
[5] = HPLM + 10% dialyzed FBS, 0.0632 µM
[6] = HPLM + 10% dialyzed FBS, 0.19 µM
[7] = HPLM + 10% dialyzed FBS, 0.569 µM
[8] = HPLM + 10% dialyzed FBS, 1.71 µM
[9] = HPLM + 10% dialyzed FBS, 5.12 µM
[10] = HPLM + 10% dialyzed FBS, 15.4 µM
[11] = HPLM + 10% dialyzed FBS, 46.1 µM
[12] = RPMI 5 mM glucose + 10% FBS, 0.000781 µM
[13] = RPMI 5 mM glucose + 10% FBS, 0.00234 µM
[14] = RPMI 5 mM glucose + 10% FBS, 0.00702 µM
[15] = RPMI 5 mM glucose + 10% FBS, 0.0211 µM
[16] = RPMI 5 mM glucose + 10% FBS, 0.0632 µM
[17] = RPMI 5 mM glucose + 10% FBS, 0.19 µM
[18] = RPMI 5 mM glucose + 10% FBS, 0.569 µM
[19] = RPMI 5 mM glucose + 10% FBS, 1.71 µM
[20] = RPMI 5 mM glucose + 10% FBS, 5.12 µM
[21] = RPMI 5 mM glucose + 10% FBS, 15.4 µM
[22] = RPMI 5 mM glucose + 10% FBS, 46.1 µM
[23] = RPMI 5 mM glucose + 10% dialyzed FBS, 0.000781 µM
[24] = RPMI 5 mM glucose + 10% dialyzed FBS, 0.00234 µM
[25] = RPMI 5 mM glucose + 10% dialyzed FBS, 0.00702 µM
[26] = RPMI 5 mM glucose + 10% dialyzed FBS, 0.0211 µM
[27] = RPMI 5 mM glucose + 10% dialyzed FBS, 0.0632 µM
[28] = RPMI 5 mM glucose + 10% dialyzed FBS, 0.19 µM
[29] = RPMI 5 mM glucose + 10% dialyzed FBS, 0.569 µM
[30] = RPMI 5 mM glucose + 10% dialyzed FBS, 1.71 µM
[31] = RPMI 5 mM glucose + 10% dialyzed FBS, 5.12 µM
[32] = RPMI 5 mM glucose + 10% dialyzed FBS, 15.4 µM
[33] = RPMI 5 mM glucose + 10% dialyzed FBS, 46.1 µM

SMILES	cell viability [1] [%]	cell viability [2] [%]	cell viability [3] [%]	cell viability [4] [%]	cell viability [5] [%]	cell viability [6] [%]	cell viability [7] [%]	cell viability [8] [%]	cell viability [9] [%]	cell viability [10] [%]	cell viability [11] [%]	cell viability [12] [%]	cell viability [13] [%]	cell viability [14] [%]	cell viability [15] [%]	cell viability [16] [%]	cell viability [17] [%]	cell viability [18] [%]	cell viability [19] [%]	cell viability [20] [%]	cell viability [21] [%]	cell viability [22] [%]	cell viability [23] [%]	cell viability [24] [%]	cell viability [25] [%]	cell viability [26] [%]	cell viability [27] [%]	cell viability [28] [%]	cell viability [29] [%]	cell viability [30] [%]	cell viability [31] [%]	cell viability [32] [%]	cell viability [33] [%]
CNCCN(C)Cc1c[nH]nc1-c1ccc(O[C@H]2C[C@H](OCCC3CCOCC3)C2)cc1	98.5	96.9	116	110	112	122	116	112	103	60.6	35.9	101	103	147	117	115	120	107	130	45.2	45.1	24.7	130	111	125	135	156	118	145	156	112	73.1	29.4
CCC[S+](=O)([O-])Nc1ccc(F)c(C(=O)c2c[nH]c3ncc(-c4ccc(Cl)cc4)cc23)c1F	115	123	122	115	119	124	134	123	131	115	104	105	126	120	99.5	127	126	128	121	128	119	107	113	98.5	113	121	125	120	128	113	134	122	109
O=C1C(CCC(O)c2ccc(F)cc2)C(c2ccc(O)cc2)N1c1ccc(F)cc1 (stereo unspecified)	107	97.3	110	112	103	109	108	101	113	102	104	81.4	98.2	96	111	92.9	100	101	97.1	114	98.8	101	106	113	121	121	128	113	115	121	113	108	108
COC1=CC(=C2C(=O)N(COC/3=C/C(=O)N4\C=C/C=C(OCCN5CCCCC5)\C4=N3)[S+]([O-])(=O)C2=C1)C(C)C	116	119	128	131	103	135	108	83.4	148	128	114	119	132	125	129	134	134	106	71	137	143	102	105	113	120	123	114	125	82.9	63.5	113	114	97.5
CNC(=O)c1cc(Oc2ccc(NC(=O)Nc3ccc(Cl)c(C(F)(F)F)c3)c(F)c2)ccn1	83.2	91.4	91.1	78.4	84.3	80.6	39.7	43.7	35.3	25.9	25.1	97	101	112	114	73.8	89.4	44.1	44.1	31.6	27.2	21.8	86.9	96.7	82.1	84	61.7	73.6	47.3	31.7	26.9	18.8	20.3
COc1cc([C@@H]2c3cc4c(cc3[C@H](O)[C@H]3COC(=O)[C@H]23)OCO4)cc(OC)c1OC	78.4	52.4	20	21.5	12.9	14.8	11.1	10.8	7.23	6.55	3.29	102	38.7	14.9	18.2	8.76	10.5	7.96	7.03	4.97	4.12	3.41	79.2	52.7	16.7	20.1	7.53	9.95	7.34	6.19	4.79	3.29	3.02
Cc1ccc([S+](=O)([O-])NC(=O)NN2CC3CCCC3C2)cc1 (stereo unspecified)	57.6	102	89.1	106	101	100	96.9	86.1	58.7	18.7	9.78	55.2	93.6	77.9	94.5	106	94.4	80.8	76.6	43.7	14.9	9.35	50.2	98.7	84.5	96.6	109	87.8	84.7	67.7	39.3	26.8	13.1
